Measurements taken from patent US20060094668A1 (Wyeth, priority 2004, published 2006).

What was measured:
[1] = literature case reports and studies; cited from earlier work
[2] = clinical; conditions: human, in vivo
Method: Both study medications were always administered 1 hour after a medium-fat meal. Tigecycline was administered intravenously (IV) in […] sterile normal saline over 30 minutes for all doses.
At approximately 8 AM, each subject received 100 mg of tigecycline. […] At approximately 8 PM, each subject received 50 mg of tigecycline.
In addition, on days 16 through 18, each subject received 50 mg of tigecycline every 12 hours (at approximately 8 AM and 8 PM).
All samples were collected from an indwelling catheter or by direct venipuncture into blood collection tubes containing ethylenediaminetetraacetic acid.
The Cmax and tmax values were taken directly from the observed data. The λz and t1/2 values were not estimable because blood samples were not collected during the terminal disposition phase.
Vss/F and MRT could not be calculated because λz could not be estimated.
(§1) Geometric least-squares (GLS) mean ratios of tigecycline PK parameters were computed, and their associated 90% confidence intervals (Cls) calculated based on least squares means and the mean square error obtained from the 2-way ANOVA. […] The SAS statistical software package was used for all statistical analyses.

[3] = Urinary digoxin pharmacokinetics (Ae, CLr), digoxin alone vs with tigecycline; conditions: N = 20; for CL renal: human, urine and plasma, oral, 0.25 mg, CLr
Description: In addition, a 24-hour urine collection (day 14 to day 15) for PK analysis was completed for each subject.
Subjects were required to void completely at the end of the predose period and at the end of each time interval after dose administration to ensure a complete interval collection.
Pharmacodynamic Assessments

[4] = clinical; conditions: human, in vivo; for AUC(0-t): AUC0-12 h; for Vd: Vss
Method: One (1) hour after a medium-fat meal, and after a predose 7-mL blood sample for a baseline tigecycline PK analysis, each subject received a single 100-mg dose of tigecycline.
Venous blood samples (7 mL each) for determination of tigecycline concentrations in serum were collected at the following times: on day 1, predose (within 2 hours before the start of the tigecycline infusion), and at 0.5 (end of infusion), 1, 1.5, 2, 3, 4, 6, 8,12,16, 24, 36, 48, 72, and 96 hours after tigecycline administration; and on day 19, predose, and at 0.5 (end of infusion), 1,1.5, 2, 3, 4, 6, 8, 12,16, 24, 36, 48, 72, and 96 hours after tigecycline administration.
Serum tigecycline samples were analyzed by a validated liquid chromatography/tandem mass spectroscopy (LC/MS/MS) method.
Tigecycline peak serum concentration (Cmax) and time to peak concentration (tmax) were reported from the observed data. Concentrations that were judged to be in the terminal phase were used to obtain the terminal-phase disposition rate constant (λz) by log-linear regression. The half-life (t1/2) was calculated as 0.693/λz. Tigecycline concentrations over the time period from hours 24 to 96 were used to estimate the t1/2.
Total AUC0-εr and AUMC were estimated as follows: AUC=(AUCt)+Ct/λz, and AUMC=(AUMCt)+tlast·Ct/λz+Ct/λz●2
The IV clearance (CL) was calculated and normalized by body weight (WT) as follows: CL=Dose/(AUC●WT). The apparent Vss was estimated by Vss=CL·MRT.
For this period of the study, the MRT was calculated as: MRT=(AUMC0-t+(t·Ctλz))/AUC0-t.
According to linear PK theory, (Gibaldi M, Perrier D. Pharmacokinetics. Marcel Dekker, Inc., 1982) the total AUC after a single dose (AUC0-∞) is equal to AUC over the dose interval τ at steady state (AUC0 τ).
For statistical comparisons, AUC, MRT, and Vss on day 1 (period 1) were based on concentrations normalized to the 50-mg tigecycline dose given during period 3.
as §1

[5] = type: in vivo, human
Description: On each day before the start of study periods 1 and 2 (day-1 and day 6), all subjects underwent physical examinations, laboratory tests, vital sign assessments, and a standard 12-lead electrocardiogram (ECG), which included measurements of rhythm, heart rate, PR, QRS, QT, and QTc intervals. Adverse event monitoring was continuous, and blood samples for PK analysis was completed at the designated times throughout all study periods. Before dose administration on days 1, 7 and 15, 3 complete ECGs were performed for each subject, and the mean value used as the subject's baseline for each corresponding period.
Twelve (1 2)-lead ECGs were performed at screening, on day-1, on days 1, 7, 14, 15, and 19 within 2 hours before study drug administration, on days 2 through 6, 8 through 13, 16 through 18, 20, 21, and 22, and at the final evaluation at approximately 8 AM.
Descriptive statistics were obtained for all demographic characteristics, drug concentrations, PK parameters, and changes from baseline in ECG parameters. Analysis of variance (ANOVA) was performed on the natural logarithm-transformed PK parameters to evaluate treatment and subject effects. An analysis of the change from baseline in ECG parameters with and without multiple-dose tigecycline administration was conducted by using ANOVA, which included terms for subject and treatment effects. […]

CC[C@H]1OC(=O)[C@H](C)[C@@H](O[C@H]2C[C@@](C)(OC)[C@@H](O)[C@H](C)O2)[C@H](C)[C@@H](O[C@@H]2O[C@H](C)C[C@H](N(C)C)[C@H]2O)[C@](C)(OC)C[C@@H](C)C(=O)[C@H](C)[C@@H](O)[C@]1(C)O [Clarithromycin]
effect on plasma levels of digoxin [1]: increase plasma levels of digoxin, sometimes to toxic levels

C[C@H]1O[C@@H](O[C@H]2[C@@H](O)C[C@H](O[C@H]3[C@@H](O)C[C@H](O[C@H]4CC[C@@]5(C)[C@H](CC[C@@H]6[C@@H]5C[C@@H](O)[C@]5(C)[C@@H](C7=CC(=O)OC7)CC[C@]65O)C4)O[C@@H]3C)O[C@@H]2C)C[C@H](O)[C@@H]1O [Digoxin]
concentration at 0 h [2]: 0.405 ng/mL
concentration at 0.5 h [2]: 0.686 ng/mL
concentration at 1 h [2]: 1.02 ng/mL
concentration at 2 h [2]: 0.966 ng/mL
concentration at 4 h [2]: 0.645 ng/mL
concentration at 6 h [2]: 0.517 ng/mL
concentration at 8 h [2]: 0.531 ng/mL
concentration at 10 h [2]: 0.451 ng/mL
concentration at 12 h [2]: 0.405 ng/mL
concentration at 16 h [2]: 0.383 ng/mL
concentration at 24 h [2]: 0.33 ng/mL
Ae, urinary digoxin, Geo. Mean [3]: 40.3%
CL renal ([3]; digoxin renal clearance, Mean ± SD): 1.82 ± 0.37 mL/min/kg
CL renal ([3]; digoxin, Geo. Mean): 1.79 mL/min/kg
Ae, urinary digoxin, Mean ± SD ([3]; percentage of dose excreted unchanged in urine 0-24 h): 41.3 ± 9.0%
effect on the AUC, CL, or MRT of tigecycline [4]: did not affect

CN(C)c1cc(NC(=O)CNC(C)(C)C)c(O)c2c1C[C@H]1C[C@H]3[C@H](N(C)C)C(O)=C(C(N)=O)C(=O)[C@@]3(O)C(O)=C1C2=O [Tigecycline]
effect on steady-state digoxin PD as measured by changes from baseline in ECG parameters ([5]; PR, QRS, QT, QTc intervals at 24 hours): did not produce significant changes
QT interval, change from baseline ([5]; in vivo): not changed further
clearance [4]: 3.7 mL/min/kg
half-life [4]: 26.7 h
AUC(0-t) ([4]; serum tigecycline, Geo. Mean): 2450 ng·h/mL
AUC(0-t) ([4]; serum tigecycline, Mean ± SD): 2480 ± 379 ng·h/mL
AUC ([4]; AUC, serum tigecycline, Mean ± SD): 2840 ± 732 ng·h/mL
MRT ([4]; serum tigecycline, Geo. Mean): 29 h
MRT ([4]; serum tigecycline, Mean ± SD): 30 ± 8.3 h
Vd ([4]; serum tigecycline, Geo. Mean): 6.43 L/kg
Vd ([4]; serum tigecycline, Mean ± SD): 6.53 ± 1.3 L/kg
clearance ([4]; iv): 3.82 mL/min/kg
